Test results as given in ChEMBL document CHEMBL1201862, “PubChem BioAssay data set” (2004).
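Five concentrations, 48 hours, 96-well plates. Here, GI50 denotes the concentration required for 50% inhibition of growth.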 Calls of active or inactive are those of the source. No stated cut-off is given here; in the data, active = GI50 up to about 1.1 µM and inactive = higher.

What was measured:
Test in all cases: DTP human tumour cell line panel, 48 h
[1] = test system: NCI-H460
[2] = test system: Malme-3M
[3] = test system: OVCAR-3
[4] = test system: HL-60
[5] = test system: OVCAR-4
[6] = test system: UACC-257
[7] = test system: OVCAR-8
[8] = test system: M14
[9] = test system: SK-OV-3
[10] = test system: UO-31
[11] = test system: A498
[12] = test system: SF-268
[13] = test system: SNB-75
[14] = test system: 786-0
[15] = test system: HT-29
[16] = test system: SK-MEL-5

Measured: GI50

O=c1nc(NC2CCCCO2)ccn1CCO (centres undefined)
inactive: [1] > 100 µM | [2] > 100 µM | [3] > 100 µM | [4] > 100 µM | [5] > 100 µM | [6] > 100 µM | [7] > 100 µM | [8] > 100 µM | [9] > 100 µM | [10] > 100 µM | [11] > 100 µM | [12] > 100 µM | [13] > 100 µM | [14] > 100 µM | [15] > 100 µM | [16] > 100 µM

CCn1c(C)nn2c(=O)c3ccccc3nc2c1=O
inactive: [1] > 100 µM | [2] > 100 µM | [3] > 100 µM | [4] > 100 µM | [5] > 100 µM | [6] > 100 µM | [7] > 100 µM | [8] > 100 µM | [9] > 100 µM | [11] > 100 µM | [13] > 100 µM | [14] > 100 µM | [15] > 100 µM | [16] > 100 µM

N#Cc1ccccc1NC(=O)/C(=N\Nc1ccc([N+](=O)[O-])cc1)C1C(=O)NC(=O)NC1=O
inactive: [1] > 100 µM | [2] > 100 µM | [3] > 100 µM | [4] > 100 µM | [5] > 100 µM | [6] > 100 µM | [7] > 100 µM | [8] > 100 µM | [9] > 100 µM | [10] 62.8 µM | [11] > 100 µM | [12] > 100 µM | [13] > 100 µM | [14] > 100 µM | [16] > 100 µM

COc1ccc(/C=C(\C(C)=O)C(=O)Nc2ccccc2)cc1
inactive: [1] > 100 µM | [2] > 100 µM | [3] > 100 µM | [4] > 100 µM | [5] > 100 µM | [6] > 100 µM | [7] > 100 µM | [8] > 100 µM | [9] > 100 µM | [10] > 100 µM | [12] > 100 µM | [14] > 100 µM | [15] > 100 µM | [16] > 100 µM

CC1=NN(c2ccccc2)C(=O)C1/N=N/c1ccc(Br)cc1C (centres undefined)
inactive: [1] > 100 µM | [2] > 100 µM | [3] > 100 µM | [4] > 100 µM | [5] 62.7 µM | [6] > 100 µM | [7] 95.9 µM | [8] 90.4 µM | [9] 32.9 µM | [11] 57 µM | [12] > 100 µM | [13] 19.1 µM | [14] 82.2 µM | [15] > 100 µM | [16] > 100 µM

O=C(c1ccc(Cl)cc1)N(C(=S)N1CCN(c2ccccc2)CC1)C1CCCCC1
inactive: [1] > 100 µM | [2] > 100 µM | [3] > 100 µM | [4] 94.6 µM | [5] > 100 µM | [6] 91.2 µM | [7] > 100 µM | [8] > 100 µM | [9] > 100 µM | [10] > 100 µM | [12] > 100 µM | [13] 85.3 µM | [14] > 100 µM | [15] > 100 µM | [16] > 100 µM

COc1ccc(NC(=O)C(=O)c2c(O)c3ccc(O)cc3oc2=O)c([N+](=O)[O-])c1
inactive: [1] > 100 µM | [2] > 100 µM | [3] > 100 µM | [4] > 100 µM | [5] > 100 µM | [6] > 100 µM | [8] > 100 µM | [9] > 100 µM | [10] > 100 µM | [11] > 100 µM | [12] > 100 µM | [13] > 100 µM | [14] > 100 µM | [15] > 100 µM | [16] > 100 µM

O=C(Nc1c(Cl)cc([N+](=O)[O-])cc1Cl)C(=O)C(C(=O)c1ccncc1)C1OC(=O)c2ccccc21 (centres undefined)
inactive: [1] > 100 µM | [2] > 100 µM | [3] > 100 µM | [4] > 100 µM | [5] > 100 µM | [6] > 100 µM | [7] > 100 µM | [8] > 100 µM | [9] > 100 µM | [10] > 100 µM | [11] > 100 µM | [12] > 100 µM | [13] 35 µM | [14] > 100 µM | [15] > 100 µM

c1ccc2c3c([nH]c2c1)C1C2CCCCN2C(c2ccncc2)N1CC3 (centres undefined)
inactive: [1] 29.6 µM | [2] 34 µM | [3] 44.1 µM | [4] 21.5 µM | [5] 61.5 µM | [6] 51.2 µM | [7] 38.1 µM | [8] 34.8 µM | [9] 36.6 µM | [10] 11.5 µM | [12] > 10 µM | [13] 22.8 µM | [14] 63.4 µM | [15] 33.1 µM | [16] 43 µM

COc1ccccc1/C=C1\CCC(CCN(C)C)(C2=CCCC2)C1=O (centres undefined)
inactive: [1] 14.8 µM | [2] 15.7 µM | [3] 16.9 µM | [4] 21.6 µM | [5] 17.7 µM | [6] 17.2 µM | [7] 17.5 µM | [8] 15.5 µM | [10] 17.6 µM | [11] 16.6 µM | [12] 19.4 µM | [13] 17.4 µM | [14] 14.4 µM | [15] 15.3 µM | [16] 13.8 µM
